From patent US7683061B2, “Triazine dimers for the treatment of autoimmune diseases” (ProMetic BioSciences Inc., priority 2003, dated 2010) come the findings set out here.

Read-outs that look alike come from different tables or passages of the source.

Assay [1] concerns the target T1, Fc portion of human IgG (binding of protein A to human IgG).
T1 construct: fused on or other part: Horseradish peroxidase chemically conjugated to the IgG (HRP-IgG)
Kind of assay: Competitive protein A binding ELISA. As to the method: As described above, this assay evaluates the ability of the exemplified compounds to mimic protein A. Such compounds can bind to the Fc portion of human IgG as ascertained by the inhibition of binding of protein A to human IgG. The competitive protein A binding ELISA assay was performed on a 96-well plate Maxisorp surface to enhance the binding of protein A to the bottom of the plate. The wells were coated with 100 μL of protein A (0.8 μg) and incubated overnight at 4° C. After incubation, unbound protein A was removed by three washes with phosphate buffer saline (PBS). The plate was then incubated with 100 μL/well of a 2% solution of bovine serum albumin (BSA) for 1 h at 37° C. to block non specific protein binding. After incubation, the plate was washed to times with PBS. 50 μL of compound or protein A, diluted in PBS or PBS-20% DMSO at appropriate concentration, were added to the wells followed by addition of 50 μL of peroxidase-conjugated human IgG (HRP-IgG). After 1 h incubation at 37° C., the plate was washed free times with PBS to remove unbound HRP-IgG. Bound HRP-IgG was detected by incubation with 100 μL of 2,2′-Azino-di[3-ethylbenzothiazoline sulfonate]diammonium salt crystals (ABTS) solution for 20 min in the dark at room temperature. The plate was then read at 405 nm on a EL 800, universal Microplate reader (Bio-Tek). Data was analyzed in Microsoft Excel and the concentration of compound which inhibits 50% binding of protein A (IC50) was calculated using Prism software.
Table 1 represents the IC50 of compounds tested in the competitive protein A binding ELISA assay, which consists of a side-by-side analysis in PBS and PBS-20% DMSO. DMSO was used to increase the solubility of some of the compounds.

The test system of assay [2] is TNFα production, J774A-1 cells. Kind of assay: LPS-induced TNFα production in J774A-1 cells (ELISA). Type of assay: cell-based. The conditions noted are these: Mus musculus, J774.A1, 24 h, read-out: IC50 (μM), inhibition of TNFα released by LPS induction. Here is the method: Effect of compounds on TNFα production was measured by ELISA using J774-1 cells stimulated by LPS. J774-1 cells were cultured in the presence or absence of LPS and compound. Cells were cultured at 37° C. for 24 h and thereafter the supernatants were collected for the determination of the concentration of TNFα by ELISA as recommended by the manufacturer (BD Biosciences). Data was analyzed in Microsoft Excel and the concentration of compound which inhibits 50% of TNFα production (IC50) was calculated using Prism software.

Assay [3] deals with TNFα-induced apoptosis, WEHI-13VAR cells. Kind of assay: TNFα induced apoptosis in WEHI-13VAR cells (MTT). Type of assay: cell-based, murine. The conditions noted are these: Mus musculus; for inhibition at 10 µM: 1 × 10^−5M; for inhibition at 20 µM: 2 × 10^−5M; for inhibition at 40 µM: 4 × 10^−5M; for inhibition at 5 µM: 5 × 10^−6M. As to the method:
Effect of compounds on TNFα-induced apoptosis was measured by a standard biological assay using WEHI-13VAR cells. These cells undergo apoptosis when they are incubated in the presence of TNFα and actinomycin D. 2×10^4 WEHI-13VAR cells were incubated in RPMI supplemented with 1% sodium pyruvate and 10% FBS, overnight at 37° C. for cell adherence. The cells were then cultured in the presence of 1 μg/mL of actinomycin D (to inhibit protein synthesis) and 0.04 nM TNFα with or without compounds at 37° C. After 16-24 h, 50 μL of a solution of 2 mg/mL of MTT was added to each well and the plate was then incubated for 4 h at 37° C. Only viable cells metabolize MTT to form formazan salt, which is detectable by the measurement of absorbance at 570 nm. After the incubation, the plate was inverted to remove medium and dead cells. 150 μL DMSO was added to each well to stop the reaction and solubilize the formazan salt. Optical density was read on a EL 800, universal Microplate reader (Bio-Tek). A decrease in the optical density is direct evidence of cell apoptosis induced by TNFα. Compounds were also compared to the activity of an anti-TNFα neutralizing antibody.

The mark [4] stands for this setting: Table 1, PBS-20% DMSO, read-out: IC50 (μM): Assay in PBS-20% DMSO.
The mark [5] stands for this setting: Table 1, PBS, read-out: IC50 (μM): Assay in PBS.
The mark [6] stands for this setting: Table 2, PBS-20% DMSO, n = 5 or 6, read-out: IC50 (n = 5 or 6) PBS-20% DMSO.
Setting [7] is: Table 2, PBS, n = 5 or 6, read-out: IC50 (n = 5 or 6) PBS.

Broadly, the IC50 is the concentration needed to halve the response being measured. As to `Oc1ccc(CCNc2nc(Nc3ccccc3)nc(N[C@H](COc3nc(NCCc4ccc(O)cc4)nc(Nc4ccccc4)n3)c3ccccc3)n2)cc1` [Compound 39], the IC50 in assay [1] (setting [4]) was 43 µM.

In the case of `Oc1ccc(CCNc2nc(Nc3ccccc3)nc(Nc3ccc(CNc4nc(NCCc5cnc[nH]5)nc(Nc5ccccc5)n4)cc3)n2)cc1` [Compound 27], the half-inhibitory concentration (IC50) in assay [1] (setting [4]) worked out at 28 µM.

Regarding `COc1ccccc1Nc1nc(NCCN)nc(NCCc2ccc(Nc3nc(NCCc4ccc(O)cc4)nc(Nc4ccccc4)n3)cc2)n1` [Compound 22], the half-inhibitory concentration (IC50) in assay [2] stood at 62.1 µM.

Consider `Nc1cccc(Nc2nc(NCCO)nc(Nc3ccc(Nc4nc(NCCO)nc(Nc5cccc(N)c5)n4)cc3)n2)c1` [Compound 47], for which the concentration for half-maximal inhibition (IC50) in assay [1] (setting [4]) and in assay [1] (setting [5]) was 0.2 µM in each case.

As to `Nc1ccc(CCNc2nc(NCC3CCN(c4nc(NCCc5ccc(N)cc5)nc(Nc5cccc(N)c5)n4)CC3)nc(Nc3cccc(N)c3)n2)cc1` [Compound 30], the IC50 amounted to 0.03 µM in assay [1] (setting [4]), 0.4 µM in assay [1] (setting [5]), 0.033 µM in assay [1] (setting [6]) and 0.426 µM in assay [1] (setting [7]).

What is called inhibition is the relative decrease from the control value, in per cent. On to `Nc1cccc(Nc2nc(NCCO)nc(Nc3ccc(CNc4nc(Nc5cccc(N)c5)nc(Nc5cccc(N)c5)n4)cc3)n2)c1` [Compound 42], for which, in assay [3], the inhibition at 10 µM was -1.7%, the inhibition at 20 µM turned out to be 0.5%, the inhibition at 40 µM was found to be 30.4% and the inhibition at 5 µM was -3.1%. Besides, the 50% inhibitory concentration (IC50) in assay [1] (setting [4]) was determined as 0.05 µM. Also, in assay [1] (setting [5]), the IC50 is 0.05 µM.

`Nc1ccc(CNc2nc(NCc3ccc(CNc4nc(NCc5ccc(N)cc5)nc(Nc5cccc(N)c5)n4)cc3)nc(Nc3cccc(N)c3)n2)cc1` [Compound 48]: the figures for the IC50 in assay [1] (setting [4]) and in assay [1] (setting [5]) were 0.05 µM and 0.2 µM, respectively.

`O=C(O)[C@H](Nc1nc(NCCNc2nc(NCCc3ccc(O)cc3)nc(N[C@@H](C(=O)O)c3ccccc3)n2)nc(NCCc2ccc(O)cc2)n1)c1ccccc1` [Compound 10]: the IC50 in assay [1] (setting [4]) stood at 85 µM; in assay [1] (setting [5]), 69 µM.

For the compound `Cc1ccc(Nc2nc(NCCc3ccc(N)cc3)nc(Nc3ccccc3)n2)cc1CNc1nc(NCCO)nc(Nc2ccccc2)n1` [Compound 34], the concentration for half-maximal inhibition (IC50) stood at 1 µM in assay [1] (setting [4]) and 23 µM in assay [1] (setting [5]).

With `COC(=O)[C@H](Cc1ccc(O)cc1)Nc1nc(NCCNc2nc(NCCc3cc4ccccc4[nH]3)nc(N[C@@H](Cc3ccc(O)cc3)C(=O)OC)n2)nc(NCCc2cc3ccccc3[nH]2)n1` [Compound 8], the IC50 in assay [1] (setting [4]) was 28 µM.

In the case of `Nc1cccc(Nc2nc(NCCO)nc(Nc3cccc(CNc4nc(Nc5cccc(N)c5)nc(Nc5cccc(N)c5)n4)c3)n2)c1` [Compound 43], the results for the half-inhibitory concentration (IC50) in assay [1] (setting [4]) and in assay [1] (setting [5]) were 0.05 µM and 0.08 µM, respectively.

Consider `Nc1ccc(CCNc2nc(Nc3ccccc3)nc(N3CCN(c4nc(NCCc5ccc(N)cc5)nc(Nc5ccccc5)n4)CC3)n2)cc1` [Compound 36], for which the IC50 in assay [1] (setting [4]) turned out to be 16 µM.

For `Nc1cccc(Nc2nc(Nc3cccc(Nc4nc(Nc5cccc(N)c5)nc(NC(CO)CO)n4)c3)nc(NC(CO)CO)n2)c1` [Compound 50], the IC50 was determined as 1 µM in assay [1] (setting [4]) and 0.4 µM in assay [1] (setting [5]).

In the case of `Nc1ccc(CCNc2nc(NCC3CCN(c4nc(NCCc5ccc(N)cc5)nc(Nc5ccccc5)n4)CC3)nc(Nc3ccccc3)n2)cc1` [Compound 32], the IC50 amounted to 2 µM in assay [1] (setting [4]) and 33 µM in assay [1] (setting [5]).

Take `Nc1cccc(Nc2nc(NCCO)nc(Nc3cccc(Nc4nc(NCCO)nc(Nc5cccc(N)c5)n4)c3)n2)c1` [Compound 49]: the IC50 came out at 0.5 µM in assay [1] (setting [4]) and 0.3 µM in assay [1] (setting [5]).

Turning to `NCCNc1nc(NCc2cccc(CNc3nc(NCCc4ccc(O)cc4)nc(Nc4ccccc4)n3)c2)nc(Nc2ccccc2)n1` [Compound 40], in assay [2], the IC50 came to 87.2 µM.

`O=C(O)c1ccccc1Nc1nc(NCCNc2nc(NCCc3ccc(O)cc3)nc(Nc3ccccc3C(=O)O)n2)nc(NCCc2ccc(O)cc2)n1` [Compound 9]: in assay [1] (setting [4]), the half-maximal inhibitory concentration (IC50) was 50 µM.

With `NCCCNc1nc(NCCc2ccc(Nc3nc(NCCc4ccc(O)cc4)nc(Nc4ccccc4)n3)cc2)nc(Nc2ccccc2)n1` [Compound 24], the 50% inhibitory concentration (IC50) in assay [2] was found to be 11.5 µM.

As for `Nc1ccc(CCNc2nc(Nc3cccc(N)c3)nc(N3CCN(c4nc(NCCc5ccc(N)cc5)nc(Nc5cccc(N)c5)n4)CC3)n2)cc1` [Compound 29], the IC50 was 0.003 µM in assay [1] (setting [4]), 0.2 µM in assay [1] (setting [5]), 0.0029 µM in assay [1] (setting [6]) and 0.225 µM in assay [1] (setting [7]).

Consider `OCCNc1nc(NCC2CCN(c3nc(NCCO)nc(Nc4ccccc4)n3)CC2)nc(Nc2ccccc2)n1` [Compound 26], for which, in assay [3], the inhibition at 10 µM came to 27.3%, the inhibition at 20 µM was determined as 38%, the inhibition at 40 µM is -11.5% and the inhibition at 5 µM was 9.7%.

In the case of `Oc1ccc(CCNc2nc(Nc3ccccc3)nc(Nc3cccc(Nc4nc(NCCc5ccc(O)cc5)nc(Nc5ccccc5)n4)c3)n2)cc1` [Compound 38], the half-maximal inhibitory concentration (IC50) in assay [2] was determined as 9.5 µM.

`Nc1cccc(Nc2nc(N)nc(NCc3ccc(CNc4nc(N)nc(Nc5cccc(N)c5)n4)cc3)n2)c1` [Compound 41]: the concentration for half-maximal inhibition (IC50) in assay [1] (setting [4]) was 0.02 µM; in assay [1] (setting [5]), 0.03 µM.

With `COc1ccccc1Nc1nc(NCCCCN)nc(NCCc2ccc(Oc3nc(NCCc4ccc(O)cc4)nc(Nc4ccccc4)n3)cc2)n1` [Compound 23], the IC50 in assay [2] came to 16.5 µM.

`Oc1ccc(CCNc2nc(NCc3ccccc3Nc3nc(NCCc4ccc(O)cc4)nc(Nc4ccccc4)n3)nc(Nc3ccccc3)n2)cc1` [Compound 37]: in assay [1] (setting [4]), the 50% inhibitory concentration (IC50) was 23 µM.

With `Nc1cccc(CNc2nc(Nc3ccc(CNc4nc(N)nc(Nc5cccc(N)c5)n4)cc3)nc(Nc3cccc(N)c3)n2)c1` [Compound 45], in assay [3], the inhibition at 10 µM was 2.9%, the inhibition at 20 µM is 4.1%, the inhibition at 40 µM came out at 32.9% and the inhibition at 5 µM is -0.3%. Further, in assay [1] (setting [4]), the half-inhibitory concentration (IC50) was 0.08 µM. Further, the IC50 in assay [1] (setting [5]) was determined as 0.1 µM.

`Nc1cccc(Nc2nc(NCCO)nc(N3CCN(c4nc(Nc5cccc(N)c5)nc(Nc5cccc(N)c5)n4)CC3)n2)c1` [Compound 44]: the half-inhibitory concentration (IC50) in assay [1] (setting [4]) came out at 0.04 µM; in assay [1] (setting [5]) it was 0.09 µM.

With `COC(=O)c1ccccc1Nc1nc(NCCNc2nc(NCCc3ccc(O)cc3)nc(Nc3ccccc3C(=O)OC)n2)nc(NCCc2ccc(O)cc2)n1` [Compound 2], in assay [3], the inhibition at 10 µM was 43.7%, the inhibition at 20 µM worked out at 48.4%, the inhibition at 40 µM stood at 48.3% and the inhibition at 5 µM worked out at 37.3%.

For `Nc1cccc(Nc2nc(N)nc(Nc3cccc(Nc4nc(NCCO)nc(Nc5cccc(N)c5)n4)c3)n2)c1` [Compound 46], the IC50 in assay [1] (setting [4]) is 0.8 µM; in assay [1] (setting [5]), 0.2 µM.

Turning to `Nc1ccc(CCNc2nc(NCCCCCCNc3nc(NCCc4ccc(N)cc4)nc(Nc4cccc(N)c4)n3)nc(Nc3cccc(N)c3)n2)cc1` [Compound 31], the IC50 stood at 0.12 µM in assay [1] (setting [4]) and 0.99 µM in assay [1] (setting [5]).

In the case of `Nc1cccc(Nc2nc(N)nc(Nc3cccc(Nc4nc(N)nc(Nc5cccc(N)c5)n4)c3)n2)c1` [Compound 51], the values for the IC50 in assay [1] (setting [4]) and in assay [1] (setting [5]) were 6 µM and 0.6 µM, respectively.

Regarding `Nc1ccc(CCNc2nc(Nc3ccccc3)nc(Nc3cccc(CNc4nc(NCCO)nc(Nc5ccccc5)n4)c3)n2)cc1` [Compound 35], the half-inhibitory concentration (IC50) worked out at 1 µM in assay [1] (setting [4]) and 23 µM in assay [1] (setting [5]).

Consider `Nc1ccc(CNc2nc(NCCNc3nc(NCc4ccc(N)cc4)nc(Nc4ccccc4)n3)nc(Nc3ccccc3)n2)cc1` [Compound 6], for which the concentration for half-maximal inhibition (IC50) in assay [1] (setting [4]) was 0.4 µM; in assay [1] (setting [5]), 2.4 µM.
